From US11633459B2, “GIP derivatives and uses thereof” (priority 2018, dated 2023)
*1 amine or outer side, *2 acyl side, *3 side chain or, on linkers, in order; H or OH if unused. Where a SMILES comes first, the peptide text is derived from it. Side-chain parts run from the residue outwards. [ ]: non-standard residue; d: D form. The star is where a group is joined. X1 = O=C(O)CCCCCCCCCCCCCCCCCCC(=O)NCC1CCC(C(=O)*)CC1; γGlu = O=C(O)[C@H](CCC(=O)[*:2])N[*:1]; Nle = CCCC[C@H](N)C(=O)O; Aib = CC(C)(N)C(=O)O

assay: Pharmacokinetic study in minipigs, terminal half-life after i.v. administration; conditions: female, Göttingen, minipig, plasma, iv, 5 nmol/kg
Method: Pharmacokinetic Study in Minipigs
The purpose of this study is to determine the half-life in vivo of the derivatives of the present invention after i.v. administration to minipigs, i.e. the prolongation of their time in the body and thereby their time of action. This is done in a pharmacokinetic (PK) study, where the terminal half-life of the derivative in question is determined. By terminal half-life is generally meant the period of time it takes to halve a certain plasma concentration, measured after the initial distribution phase.
Female Göttingen minipigs were obtained from Ellegaard Göttingen Minipigs (Dalmose, Denmark) approximately 7-14 months of age and weighing from approximately 16-35 kg were used in the studies. The minipigs were housed individually and fed restrictedly once daily with SDS minipig diet (Special Diets Services, Essex, UK).
After at 3 weeks of acclimatisation two permanent central venous catheters were implanted in vena cava caudalis in each animal. The animals were allowed 1 week recovery after the surgery, and were then used for repeated pharmacokinetic studies with a suitable wash-out period between successive derivative dosing.
Blood samples (for example 0.8 ml) were collected in EDTA buffer (8 mM) and then centrifuged at 4° C. and 1942G for 10 minutes.
Individual plasma concentration-time profiles were analysed by a non-compartmental model in Phoenix WinNonLin ver. […] (Pharsight Inc., Mountain View, Calif., USA), and the resulting terminal half-lives (harmonic mean) determined.

Point of comparison: CCCC[C@H](NC(=O)[C@H](C)NC(=O)[C@@H](NC(=O)[C@H](CO)NC(=O)[C@H](Cc1ccc(O)cc1)NC(=O)[C@H](CC(=O)O)NC(=O)[C@H](CO)NC(=O)[C@@H](NC(=O)[C@H](Cc1ccccc1)NC(=O)[C@@H](NC(=O)CNC(=O)[C@H](CCC(=O)O)NC(=O)C(C)(C)NC(=O)[C@@H](N)Cc1ccc(O)cc1)[C@@H](C)O)[C@@H](C)CC)[C@@H](C)CC)C(=O)N[C@@H](CC(=O)O)C(=O)N[C@@H](CCCCN)C(=O)N[C@H](C(=O)N[C@@H](CCCNC(=N)N)C(=O)N[C@@H](CCC(N)=O)C(=O)N[C@@H](CCC(N)=O)C(=O)N[C@@H](CC(=O)O)C(=O)N[C@@H](Cc1ccccc1)C(=O)N[C@H](C(=O)N[C@@H](CCCCNC(=O)CC[C@H](NC(=O)CC[C@H](NC(=O)CC[C@H](NC(=O)C1CCC(CNC(=O)CCCCCCCCCCCCCCCCCCC(=O)O)CC1)C(=O)O)C(=O)O)C(=O)O)C(=O)N[C@@H](Cc1c[nH]c2ccccc12)C(=O)N[C@@H](CC(C)C)C(=O)N[C@@H](CC(C)C)C(=O)N[C@@H](C)C(=O)N[C@@H](CCC(N)=O)C(=O)N[C@@H](CCCCN)C(=O)N1CCC[C@H]1C(N)=O)C(C)C)[C@@H](C)CC (stereo partly drawn) [Compound 26, N{Epsilon-24}-[(4S)-4-carboxy-4-[[(4S)-4-carboxy-4-[[(4S)-4-carboxy-4-[[4-[(19-carboxynonadecanoylamino)methyl]cyclohexanecarbonyl]amino]butanoyl]amino]-butanoyl]amino]butanoyl]-[Aib2,Nle14,Arg18,Lys24,Pro31]-hGIP(1-31) amide], half-life 109 h. Against it:
- CCCC[C@H](NC(=O)[C@H](C)NC(=O)[C@@H](NC(=O)[C@H](CO)NC(=O)[C@H](Cc1ccc(O)cc1)NC(=O)[C@H](CC(=O)O)NC(=O)[C@H](CO)NC(=O)[C@@H](NC(=O)[C@H](Cc1ccccc1)NC(=O)[C@@H](NC(=O)CNC(=O)[C@H](CCC(=O)O)NC(=O)C(C)(C)NC(=O)[C@@H](N)Cc1ccc(O)cc1)[C@@H](C)O)[C@@H](C)CC)[C@@H](C)CC)C(=O)N[C@@H](CC(=O)O)C(=O)N[C@@H](CCCCN)C(=O)N[C@H](C(=O)N[C@@H](Cc1c[nH]cn1)C(=O)N[C@@H](CCC(N)=O)C(=O)N[C@@H](CCC(N)=O)C(=O)N[C@@H](CC(=O)O)C(=O)N[C@@H](Cc1ccccc1)C(=O)N[C@H](C(=O)N[C@@H](CCCCNC(=O)CC[C@H](NC(=O)CC[C@H](NC(=O)CC[C@H](NC(=O)C1CCC(CNC(=O)CCCCCCCCCCCCCCCCCCC(=O)O)CC1)C(=O)O)C(=O)O)C(=O)O)C(=O)N[C@@H](Cc1c[nH]c2ccccc12)C(=O)N[C@@H](CC(C)C)C(=O)N[C@@H](CC(C)C)C(=O)N[C@@H](C)C(=O)N[C@@H](CCC(N)=O)C(=O)N[C@@H](CCCCN)C(=O)N1CCC[C@H]1C(N)=O)C(C)C)[C@@H](C)CC (stereo partly drawn) [Compound 27, N{Epsilon-24}-[(4S)-4-carboxy-4-[[(4S)-4-carboxy-4-[[(4S)-4-carboxy-4-[[4-[(19-carboxynonadecanoylamino)methyl]cyclohexanecarbonyl]amino]butanoyl]amino]-butanoyl]amino]butanoyl]-[Aib2,Nle14,Lys24,Pro31]-hGIP(1-31) amide] (H-Y[Aib]EGTFISDYSIA[Nle]DKIHQQDFVK([γGlu-γGlu-γGlu-X1])WLLAQKP-NH2) — within 1.5-fold, 147 h
- CCCC[C@H](NC(=O)[C@H](C)NC(=O)[C@@H](NC(=O)[C@H](CO)NC(=O)[C@H](Cc1ccc(O)cc1)NC(=O)[C@H](CC(=O)O)NC(=O)[C@H](CO)NC(=O)[C@@H](NC(=O)[C@H](Cc1ccccc1)NC(=O)[C@@H](NC(=O)CNC(=O)[C@H](CCC(=O)O)NC(=O)[C@H](C)NC(=O)[C@@H](Cc1ccc(O)cc1)NC(C)=O)[C@@H](C)O)[C@@H](C)CC)[C@@H](C)CC)C(=O)N[C@@H](CC(=O)O)C(=O)N[C@@H](CCCCN)C(=O)N[C@H](C(=O)N[C@@H](CCCNC(=N)N)C(=O)N[C@@H](CCC(N)=O)C(=O)N[C@@H](CCC(N)=O)C(=O)N[C@@H](CC(=O)O)C(=O)N[C@@H](Cc1ccccc1)C(=O)N[C@H](C(=O)N[C@@H](CCCCNC(=O)CC[C@H](NC(=O)CC[C@H](NC(=O)CC[C@H](NC(=O)C1CCC(CNC(=O)CCCCCCCCCCCCCCCCCCC(=O)O)CC1)C(=O)O)C(=O)O)C(=O)O)C(=O)N[C@@H](Cc1c[nH]c2ccccc12)C(=O)N[C@@H](CC(C)C)C(=O)N[C@@H](CC(C)C)C(=O)N[C@@H](C)C(=O)N[C@@H](CCC(N)=O)C(=O)N[C@@H](CCCCN)C(=O)N1CCC[C@H]1C(N)=O)C(C)C)[C@@H](C)CC (stereo partly drawn) [Compound 28, N{1}-acetyl,N{Epsilon-24}-[(4S)-4-carboxy-4-[[(4S)-4-carboxy-4-[[(4S)-4-carboxy-4-[[4-[(19-carboxynonadecanoylamino)methyl]cyclohexanecarbonyl]amino]butanoyl]-amino]butanoyl]amino]butanoyl]-[D-Tyr1,Nle14,Arg18,Lys24,Pro31]-hGIP(1-31) amide] (Ac-[dY]AEGTFISDYSIA[Nle]DKIRQQDFVK([γGlu-γGlu-γGlu-X1])WLLAQKP-NH2) — within 1.5-fold, 104 h
- CCCC[C@H](NC(=O)[C@H](C)NC(=O)[C@@H](NC(=O)[C@H](CO)NC(=O)[C@H](Cc1ccc(O)cc1)NC(=O)[C@H](CC(=O)O)NC(=O)[C@H](CO)NC(=O)[C@@H](NC(=O)[C@H](Cc1ccccc1)NC(=O)[C@@H](NC(=O)CNC(=O)[C@H](CCC(=O)O)NC(=O)C(C)(C)NC(=O)[C@@H](Cc1ccc(O)cc1)NC(C)=O)[C@@H](C)O)[C@@H](C)CC)[C@@H](C)CC)C(=O)N[C@@H](CC(=O)O)C(=O)N[C@@H](CCCCN)C(=O)N[C@H](C(=O)N[C@@H](Cc1c[nH]cn1)C(=O)N[C@@H](CCC(N)=O)C(=O)N[C@@H](CCC(N)=O)C(=O)N[C@@H](CC(=O)O)C(=O)N[C@@H](Cc1ccccc1)C(=O)N[C@H](C(=O)N[C@@H](CCCCNC(=O)CC[C@H](NC(=O)CC[C@H](NC(=O)CC[C@H](NC(=O)C1CCC(CNC(=O)CCCCCCCCCCCCCCCCCCC(=O)O)CC1)C(=O)O)C(=O)O)C(=O)O)C(=O)N[C@@H](Cc1c[nH]c2ccccc12)C(=O)N[C@@H](CC(C)C)C(=O)N[C@@H](CC(C)C)C(=O)N[C@@H](C)C(=O)N[C@@H](CCC(N)=O)C(=O)N[C@@H](CCCCN)C(=O)N1CCC[C@H]1C(N)=O)C(C)C)[C@@H](C)CC (stereo partly drawn) [Compound 32, N{1}-acetyl,N{Epsilon-24}-[(4S)-4-carboxy-4-[[(4S)-4-carboxy-4-[[(4S)-4-carboxy-4-[[4-[(19-carboxynonadecanoylamino)methyl]cyclohexanecarbonyl]amino]butanoyl]-amino]butanoyl]amino]butanoyl]-[D-Tyr1,Aib2, Nle14,Lys24,Pro31]-hGIP(1-31) amide] (Ac-[dY][Aib]EGTFISDYSIA[Nle]DKIHQQDFVK([γGlu-γGlu-γGlu-X1])WLLAQKP-NH2) — within 1.5-fold, 121 h
- CCCC[C@H](NC(=O)[C@H](C)NC(=O)[C@@H](NC(=O)[C@H](CO)NC(=O)[C@H](Cc1ccc(O)cc1)NC(=O)[C@H](CC(=O)O)NC(=O)[C@H](CO)NC(=O)[C@@H](NC(=O)[C@H](Cc1ccccc1)NC(=O)[C@@H](NC(=O)CNC(=O)[C@H](CCC(=O)O)NC(=O)[C@H](C)NC(=O)[C@@H](Cc1ccc(O)cc1)NC(C)=O)[C@@H](C)O)[C@@H](C)CC)[C@@H](C)CC)C(=O)N[C@@H](CC(=O)O)C(=O)N[C@@H](CCCCN)C(=O)N[C@H](C(=O)N[C@@H](CCCNC(=N)N)C(=O)N[C@@H](CCC(N)=O)C(=O)N[C@@H](CCC(N)=O)C(=O)N[C@@H](CC(=O)O)C(=O)N[C@@H](Cc1ccccc1)C(=O)N[C@H](C(=O)N[C@@H](CCCCNC(=O)CC[C@H](NC(=O)CC[C@H](NC(=O)CC[C@H](NC(=O)C1CCC(CNC(=O)CCCCCCCCCCCCCCCCCCC(=O)O)CC1)C(=O)O)C(=O)O)C(=O)O)C(=O)N[C@@H](Cc1c[nH]c2ccccc12)C(=O)N[C@@H](CC(C)C)C(=O)N[C@@H](CC(C)C)C(=O)N[C@@H](C)C(=O)N[C@@H](CCC(N)=O)C(=O)N[C@@H](CCCCN)C(=O)NCC(=O)O)C(C)C)[C@@H](C)CC (stereo partly drawn) [Compound 8, N{1}-acetyl,N{Epsilon-24}-[(4S)-4-carboxy-4-[[(4S)-4-carboxy-4-[[(4S)-4-carboxy-4-[[4-[(19-carboxynonadecanoylamino)methyl]cyclohexanecarbonyl]amino]-butanoyl]amino]butanoyl]amino]butanoyl]-[D-Tyr1,Nle14,Arg18,Lys24]-hGIP(1-31)] — within 1.5-fold, 106 h
